Data taken from patent US12139480B2, “5-thiazolecarboxamide kinase inhibitor and uses thereof” (iOmx Therapeutics AG, priority 2018, dated 2024).
Like-named read-outs stand apart in the source and are kept apart here.

Experiments:
ERBB2 = ERBB2 (Homo sapiens, UniProt P04626); assay: single-point (1 uM) inhibition assay (ProQinase Kinase Profiler); assay type: biochemical; settings: read-out: % residual activity class (FIG. 3)
EPHA6 = EPHA6 (Homo sapiens, UniProt Q9UF33); assay: as above; assay type: biochemical; settings: 1 uM compound, read-out: % residual activity class (FIG. 3)
hERG potassium channel = hERG potassium channel (Homo sapiens, UniProt Q12809); settings: page 31, NDA 21-986, cited from earlier work
BMPR1A = biological target: T1, BMPR1A (Homo sapiens, UniProt P36894); assay: single-point (1 uM) inhibition assay (ProQinase Kinase Profiler); assay type: biochemical
T1 construct: purchased ProQinase, Freiburg, Germany (Kinase Profiler panel)

[1] = cited from earlier work
JAK1 aa583-1154 wt = biological target: T2, JAK1 aa583-1154 wt (Homo sapiens, UniProt P23458); assay: single-point (1 uM) inhibition assay (ProQinase Kinase Profiler); assay type: biochemical
T2 construct: JAK1 aa583-1154 wt; purchased ProQinase, Freiburg, Germany (Kinase Profiler panel)

KU812 tumours = settings: large KU812 tumours (up to >1 g); 50 mg/kg/day for 5 days; cited from earlier work
FGF-R2 = FGF-R2 (Homo sapiens, UniProt P21802); assay: single-point (1 uM) inhibition assay (ProQinase Kinase Profiler); assay type: biochemical; settings: read-out: % residual activity class (FIG. 3)
ACV-R2B = ACV-R2B (Homo sapiens, UniProt Q13705); assay: biochemical; settings: read-out: % residual activity class (FIG. 3)
p38-beta = p38-beta (Homo sapiens, UniProt Q15759); assay: biochemical; settings: read-out: % residual activity class (FIG. 3)
ACV-R2A = biological target: T3, ACV-R2A (Homo sapiens, UniProt P27037); assay: single-point (1 uM) inhibition assay (ProQinase Kinase Profiler); assay type: biochemical; settings: 1 uM compound, read-out: % residual activity class (FIG. 3)
T3 construct: purchased ProQinase

KIT = biological target: T4, KIT (Homo sapiens, UniProt P10721); assay: as above; assay type: biochemical
T4 construct: purchased ProQinase

BRK = biological target: T5, BRK (Homo sapiens, UniProt Q13882); assay: as above; assay type: biochemical; settings: 1 uM compound, read-out: % residual activity class (FIG. 3)
T5 construct: purchased ProQinase

EGF-R = biological target: T6, EGF-R (Homo sapiens, UniProt P00533); assay: as above; assay type: biochemical; settings: 1 uM compound, read-out: % residual activity class (FIG. 3)
T6 construct: purchased ProQinase

LCK = biological target: T7, LCK (Homo sapiens, UniProt P06239); assay: as above; assay type: biochemical; settings: 1 uM compound, read-out: % residual activity class (FIG. 3)
T7 construct: purchased ProQinase

SRC = biological target: T8, SRC (Homo sapiens, UniProt P12931); assay: biochemical; settings: 1 uM compound, read-out: % residual activity class (FIG. 3)
T8 construct: purchased ProQinase

FLT3 = biological target: T9, FLT3 (Homo sapiens, UniProt P36888); assay: single-point (1 uM) inhibition assay (ProQinase Kinase Profiler); assay type: biochemical; settings: read-out: % residual activity class (FIG. 3)
T9 construct: purchased ProQinase

ABL1 = biological target: T10, ABL1 (Homo sapiens, UniProt P00519); assay: biochemical; settings: 1 uM compound, read-out: % residual activity class (FIG. 3)
T10 construct: purchased ProQinase

BTK = biological target: T11, BTK (Homo sapiens, UniProt Q06187); assay: single-point (1 uM) inhibition assay (ProQinase Kinase Profiler); assay type: biochemical; settings: 1 uM compound, read-out: % residual activity class (FIG. 3)
T11 construct: purchased ProQinase

B-RAF = biological target: T12, B-RAF (Homo sapiens, UniProt P15056); assay: as above; assay type: biochemical
T12 construct: purchased ProQinase

EPHA1 = biological target: T13, EPHA1 (Homo sapiens, UniProt P21709); assay: as above; assay type: biochemical
T13 construct: purchased ProQinase

EPHA4 = biological target: T14, EPHA4 (Homo sapiens, UniProt P54764); assay: as above; assay type: biochemical
T14 construct: purchased ProQinase

NIK = NIK (Homo sapiens, UniProt Q99558); assay: biochemical; settings: read-out: Residual activity (%) at 1 uM
RAF1 = assay: single-point (1 uM) inhibition assay (ProQinase Kinase Profiler); assay type: biochemical; settings: 1 uM compound
EPHB3 = biological target: T15, EPHB3 (Homo sapiens, UniProt P54753); assay: as above; assay type: biochemical
T15 construct: purchased ProQinase

EPHA2 = biological target: T16, EPHA2 (Homo sapiens, UniProt P29317); assay: as above; assay type: biochemical
T16 construct: purchased ProQinase

BMX = biological target: T17, BMX (Homo sapiens, UniProt P51813); assay: as above; assay type: biochemical; settings: 1 uM compound, read-out: % residual activity class (FIG. 3)
T17 construct: purchased ProQinase

EPHA8 = biological target: T18, EPHA8 (Homo sapiens, UniProt P29322); assay: as above; assay type: biochemical
T18 construct: purchased ProQinase

ERBB4 = biological target: T19, ERBB4 (Homo sapiens, UniProt Q15303); assay: as above; assay type: biochemical; settings: 1 uM compound, read-out: % residual activity class (FIG. 3)
T19 construct: purchased ProQinase

[2] = mouse liver microsomal stability; assay type: in vitro ADME
[3] = read-out: Residual activity (%) at 1 uM
[4] = read-out: % residual activity class (FIG. 3)

T18 sequence (P29322 28-1005): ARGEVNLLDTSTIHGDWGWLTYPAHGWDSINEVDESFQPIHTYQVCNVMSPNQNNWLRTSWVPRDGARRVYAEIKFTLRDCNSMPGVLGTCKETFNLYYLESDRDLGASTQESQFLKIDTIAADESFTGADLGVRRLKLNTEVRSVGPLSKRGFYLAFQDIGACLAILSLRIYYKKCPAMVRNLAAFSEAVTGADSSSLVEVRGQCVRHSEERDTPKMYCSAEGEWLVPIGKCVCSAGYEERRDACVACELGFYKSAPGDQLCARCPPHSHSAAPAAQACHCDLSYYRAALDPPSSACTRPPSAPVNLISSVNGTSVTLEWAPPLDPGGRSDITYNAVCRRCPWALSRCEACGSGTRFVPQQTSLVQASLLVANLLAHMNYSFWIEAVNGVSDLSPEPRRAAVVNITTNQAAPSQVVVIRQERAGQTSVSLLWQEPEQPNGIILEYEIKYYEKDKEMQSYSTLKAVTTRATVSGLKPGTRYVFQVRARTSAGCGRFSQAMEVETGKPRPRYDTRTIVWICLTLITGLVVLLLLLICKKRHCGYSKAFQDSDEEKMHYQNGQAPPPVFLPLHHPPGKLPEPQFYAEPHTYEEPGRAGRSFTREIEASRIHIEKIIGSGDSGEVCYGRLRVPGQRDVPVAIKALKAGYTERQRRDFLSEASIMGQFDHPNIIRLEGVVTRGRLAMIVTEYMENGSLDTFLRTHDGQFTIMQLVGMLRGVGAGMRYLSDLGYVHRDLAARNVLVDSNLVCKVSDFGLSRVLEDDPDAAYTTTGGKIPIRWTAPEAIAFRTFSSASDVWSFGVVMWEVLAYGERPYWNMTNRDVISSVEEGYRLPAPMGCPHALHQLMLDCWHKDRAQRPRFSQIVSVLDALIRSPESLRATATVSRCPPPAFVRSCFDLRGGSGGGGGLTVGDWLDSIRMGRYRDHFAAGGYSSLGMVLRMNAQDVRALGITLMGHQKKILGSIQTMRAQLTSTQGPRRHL
T13 sequence (P21709 26-976): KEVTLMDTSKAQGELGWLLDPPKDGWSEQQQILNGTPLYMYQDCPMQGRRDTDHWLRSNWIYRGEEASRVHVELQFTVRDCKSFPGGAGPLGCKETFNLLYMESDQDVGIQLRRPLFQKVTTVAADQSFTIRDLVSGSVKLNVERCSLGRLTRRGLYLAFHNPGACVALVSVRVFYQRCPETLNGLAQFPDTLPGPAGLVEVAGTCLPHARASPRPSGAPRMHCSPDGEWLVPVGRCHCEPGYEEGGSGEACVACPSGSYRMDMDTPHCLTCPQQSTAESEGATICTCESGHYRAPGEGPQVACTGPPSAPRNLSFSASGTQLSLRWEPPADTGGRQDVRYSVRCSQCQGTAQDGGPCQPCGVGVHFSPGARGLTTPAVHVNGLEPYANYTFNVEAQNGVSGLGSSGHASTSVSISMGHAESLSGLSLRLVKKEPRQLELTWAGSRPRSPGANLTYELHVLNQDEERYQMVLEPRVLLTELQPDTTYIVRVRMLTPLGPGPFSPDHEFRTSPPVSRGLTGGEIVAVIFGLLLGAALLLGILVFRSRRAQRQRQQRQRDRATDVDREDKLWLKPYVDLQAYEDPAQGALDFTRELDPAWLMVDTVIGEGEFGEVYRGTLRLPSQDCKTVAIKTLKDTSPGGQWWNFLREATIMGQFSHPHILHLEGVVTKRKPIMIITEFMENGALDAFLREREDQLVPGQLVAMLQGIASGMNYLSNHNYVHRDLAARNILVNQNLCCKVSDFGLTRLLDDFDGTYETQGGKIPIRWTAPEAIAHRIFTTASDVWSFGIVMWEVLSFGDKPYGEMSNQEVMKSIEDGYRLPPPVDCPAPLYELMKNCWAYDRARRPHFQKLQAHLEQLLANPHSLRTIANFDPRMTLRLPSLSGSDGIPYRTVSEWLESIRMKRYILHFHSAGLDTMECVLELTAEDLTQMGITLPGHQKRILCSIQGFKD
T1 sequence (P36894 24-532): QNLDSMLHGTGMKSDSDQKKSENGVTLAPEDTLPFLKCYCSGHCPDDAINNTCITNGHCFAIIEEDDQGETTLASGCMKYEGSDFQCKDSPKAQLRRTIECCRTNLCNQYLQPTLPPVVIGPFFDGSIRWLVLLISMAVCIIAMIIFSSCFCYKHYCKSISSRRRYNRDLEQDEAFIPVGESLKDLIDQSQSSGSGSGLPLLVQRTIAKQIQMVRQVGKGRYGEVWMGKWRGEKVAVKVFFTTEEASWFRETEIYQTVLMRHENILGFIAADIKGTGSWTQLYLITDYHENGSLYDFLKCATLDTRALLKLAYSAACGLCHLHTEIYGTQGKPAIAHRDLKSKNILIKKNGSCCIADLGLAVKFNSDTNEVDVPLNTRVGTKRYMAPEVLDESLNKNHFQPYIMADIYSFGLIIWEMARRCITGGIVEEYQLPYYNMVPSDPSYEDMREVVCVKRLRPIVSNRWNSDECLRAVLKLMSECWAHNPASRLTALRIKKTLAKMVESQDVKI
Sequence of hERG potassium channel (Q12809 whole entry): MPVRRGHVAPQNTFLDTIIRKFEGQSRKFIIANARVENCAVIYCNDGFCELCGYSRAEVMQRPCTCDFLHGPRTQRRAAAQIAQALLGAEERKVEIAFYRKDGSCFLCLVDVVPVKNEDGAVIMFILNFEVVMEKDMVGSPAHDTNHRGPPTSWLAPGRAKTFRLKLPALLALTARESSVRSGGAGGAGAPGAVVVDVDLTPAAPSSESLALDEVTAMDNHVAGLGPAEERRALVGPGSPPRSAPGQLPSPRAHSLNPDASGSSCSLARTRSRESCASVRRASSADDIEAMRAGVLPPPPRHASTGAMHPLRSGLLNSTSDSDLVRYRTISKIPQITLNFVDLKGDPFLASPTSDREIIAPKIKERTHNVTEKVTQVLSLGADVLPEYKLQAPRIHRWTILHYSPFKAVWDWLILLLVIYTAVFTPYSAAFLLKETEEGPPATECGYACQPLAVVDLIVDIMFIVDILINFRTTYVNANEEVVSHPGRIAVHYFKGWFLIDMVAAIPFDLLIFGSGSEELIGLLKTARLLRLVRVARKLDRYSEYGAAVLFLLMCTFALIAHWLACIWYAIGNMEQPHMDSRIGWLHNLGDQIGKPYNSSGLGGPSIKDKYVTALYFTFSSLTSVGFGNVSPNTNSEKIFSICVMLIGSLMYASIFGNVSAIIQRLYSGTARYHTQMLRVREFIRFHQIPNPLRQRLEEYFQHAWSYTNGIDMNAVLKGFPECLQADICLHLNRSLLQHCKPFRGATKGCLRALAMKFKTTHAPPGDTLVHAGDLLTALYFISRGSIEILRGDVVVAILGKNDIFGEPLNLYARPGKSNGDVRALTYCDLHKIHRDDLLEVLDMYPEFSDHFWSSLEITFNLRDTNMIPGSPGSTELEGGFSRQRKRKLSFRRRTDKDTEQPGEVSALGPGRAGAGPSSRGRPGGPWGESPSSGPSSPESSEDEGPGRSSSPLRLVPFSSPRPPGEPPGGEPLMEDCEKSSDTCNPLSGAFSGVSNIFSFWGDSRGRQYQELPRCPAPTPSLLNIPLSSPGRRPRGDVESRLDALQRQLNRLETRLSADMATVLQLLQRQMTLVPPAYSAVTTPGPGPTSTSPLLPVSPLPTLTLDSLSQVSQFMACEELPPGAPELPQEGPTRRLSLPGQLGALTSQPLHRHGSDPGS
T16 sequence (P29317 24-976): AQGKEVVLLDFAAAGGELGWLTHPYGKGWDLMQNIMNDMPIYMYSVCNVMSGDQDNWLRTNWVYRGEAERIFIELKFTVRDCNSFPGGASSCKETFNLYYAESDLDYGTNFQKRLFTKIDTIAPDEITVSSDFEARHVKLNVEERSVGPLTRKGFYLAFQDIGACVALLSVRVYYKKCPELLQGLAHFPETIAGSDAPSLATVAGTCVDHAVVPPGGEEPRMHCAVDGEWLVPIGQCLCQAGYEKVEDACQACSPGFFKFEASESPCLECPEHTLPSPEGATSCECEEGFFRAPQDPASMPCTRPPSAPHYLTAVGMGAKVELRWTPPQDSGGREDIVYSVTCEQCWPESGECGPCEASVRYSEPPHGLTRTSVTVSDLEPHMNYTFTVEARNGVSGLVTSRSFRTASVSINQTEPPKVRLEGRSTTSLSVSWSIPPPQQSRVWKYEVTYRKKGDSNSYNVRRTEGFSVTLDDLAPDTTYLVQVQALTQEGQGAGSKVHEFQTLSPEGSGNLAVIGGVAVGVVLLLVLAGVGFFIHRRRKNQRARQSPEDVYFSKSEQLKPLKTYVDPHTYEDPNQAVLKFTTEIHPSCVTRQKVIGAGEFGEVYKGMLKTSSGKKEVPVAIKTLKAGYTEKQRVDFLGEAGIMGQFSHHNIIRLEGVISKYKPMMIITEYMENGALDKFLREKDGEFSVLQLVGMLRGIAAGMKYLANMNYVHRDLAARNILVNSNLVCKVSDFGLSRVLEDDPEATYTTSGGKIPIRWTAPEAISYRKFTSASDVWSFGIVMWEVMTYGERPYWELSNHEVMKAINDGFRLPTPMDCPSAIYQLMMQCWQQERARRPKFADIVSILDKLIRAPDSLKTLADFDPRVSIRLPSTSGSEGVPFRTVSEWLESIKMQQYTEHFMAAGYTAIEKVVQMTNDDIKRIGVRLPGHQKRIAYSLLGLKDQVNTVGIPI
T5 sequence (Q13882 whole entry): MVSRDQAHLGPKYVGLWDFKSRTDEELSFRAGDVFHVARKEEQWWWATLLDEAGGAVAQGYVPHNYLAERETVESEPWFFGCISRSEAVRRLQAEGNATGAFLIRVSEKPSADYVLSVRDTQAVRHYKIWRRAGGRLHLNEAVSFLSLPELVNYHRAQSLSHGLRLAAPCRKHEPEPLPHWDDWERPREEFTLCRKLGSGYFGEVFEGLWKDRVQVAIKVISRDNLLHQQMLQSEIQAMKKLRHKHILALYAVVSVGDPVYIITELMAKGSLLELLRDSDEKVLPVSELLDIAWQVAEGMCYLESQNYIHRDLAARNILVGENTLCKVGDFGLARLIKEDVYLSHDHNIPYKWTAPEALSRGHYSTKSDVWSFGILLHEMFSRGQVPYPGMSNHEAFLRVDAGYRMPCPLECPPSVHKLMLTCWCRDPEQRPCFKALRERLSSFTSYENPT

Cc1nc(Nc2ncc(C(=O)Nc3c(C)cccc3Cl)s2)cc(N2CCN(CCO)CC2)n1 [Compound A8, N-(2-chloro-6-methylphenyl)-2-((6-(4-(2-hydroxyethyl)piperazin-1-yl)-2-methylpyrimidin-4-yl)amino)thiazole-5-carboxamide, reference compound]
remaining activity at 1 µM (ERBB2): 25 to 50% | remaining activity at 1 µM (EPHA6): 25 to 50% | inhibition of hERG currents (hERG potassium channel; 3 uM): about 6% | inhibition of hERG currents (hERG potassium channel; 10 uM): ~36% | remaining activity at 1 µM (BMPR1A; BMPR1A, 1 uM compound, read-out: % residual activity class (FIG. 3)): 25 to 50% | remaining activity at 1 µM (BMPR1A; [3]): 42% | cardiac adverse reactions ([1]; 258 patients taking dasatinib): 5.8 % of patients | cardiomyopathy, heart failure congestive, diastolic dysfunction, fatal myocardial infarction, and left ventricular dysfunction ([1]; 258 patients taking dasatinib): 1.6 % of patients | other cases of severe haemorrhage ([1]; all clinical studies): 2 % of patients | severe central nervous system (CNS) haemorrhages (including fatalities) ([1]; all clinical studies): 1 % of patients | severe gastrointestinal haemorrhage, including fatalities ([1]; all clinical studies): 4 % of patients | QT prolongation ([1]; clinical trials): up to 1 % of CML patients | severe fluid retention ([1]; clinical trials): up to 10 % of patients | remaining activity at 1 µM (JAK1 aa583-1154 wt; [4]): 25 to 50% | remaining activity at 1 µM (JAK1 aa583-1154 wt; [3]): 41% | tumour response (KU812 tumours): curative | remaining activity at 1 µM (FGF-R2): 25 to 50% | remaining activity at 1 µM (ACV-R2B): < 25% | remaining activity at 1 µM (p38-beta): < 25%

Cc1nc(Nc2ncc(C(=O)Nc3c(Cl)ccnc3C)s2)cc(N2CCN(CCO)CC2)n1 [Compound B3, N-(4-chloro-2-methylpyridin-3-yl)-2-((6-(4-(2-hydroxyethyl)piperazin-1-yl)-2-methylpyrimidin-4-yl)amino)thiazole-5-carboxamide]
remaining activity at 1 µM (ACV-R2A): 25 to 50% | remaining activity at 1 µM (KIT; [4]): < 25% | remaining activity at 1 µM (KIT; [3]): 5% | remaining activity at 1 µM (BRK): < 25% | remaining activity at 1 µM (EGF-R): 25 to 50% | remaining activity at 1 µM (LCK): < 25% | remaining activity at 1 µM (SRC): < 25% | remaining activity at 1 µM (FLT3): 25 to 50% | remaining activity at 1 µM (ABL1): < 25% | remaining activity at 1 µM (BTK): < 25% | remaining activity at 1 µM (B-RAF; [4]): 25 to 50% | remaining activity at 1 µM (B-RAF; [3]): ~50% | remaining activity at 1 µM (EPHA1; [4]): < 25% | remaining activity at 1 µM (EPHA1; [3]): 3% | remaining activity at 1 µM (EPHA4; [4]): < 25% | remaining activity at 1 µM (EPHA4; [3]): 10% | remaining activity at 1 µM (NIK): 100% | % residual activity class (FIG. 3) (RAF1): *** (25% to <50% residual activity) | remaining activity at 1 µM (EPHB3; [4]): < 25% | remaining activity at 1 µM (EPHB3; [3]): 3% | remaining activity at 1 µM (EPHA2; [4]): < 25% | remaining activity at 1 µM (EPHA2; [3]): 0% | remaining activity at 1 µM (BMX): < 25% | remaining activity at 1 µM (EPHA8; [4]): < 25% | remaining activity at 1 µM (EPHA8; [3]): 3% | remaining activity at 1 µM (ERBB4): < 25% | Half-life [2]: 1.03 h
